According to article PMC8774489, “[(WR)8WKβA]-Doxorubicin Conjugate: A Delivery System to Overcome Multi-Drug Resistance against Doxorubicin” (Cells, 2022):
Like-named read-outs stand apart in the source and are kept apart here. Peptide text beside a SMILES is read from it.

Columns and labels:
[1] = test system: SK-OV-3 cells; format: cell-based, human; details: 5 µM, 72 h, MTS, mean n = 3
Experimental: (§1) The incubation was continued for 3 h.

[2] = test system: MDA-MB-231 cells; format: cell-based, human; details: MTS; for MDA-MB-231 cell viability: 5 µM, mean n = 3
Experimental: as §1

[3] = test system: MCF-7 cells; test: In vitro cytotoxicity (MTS) assay in MCF-7 cells; format: cell-based, human; details: for reduction of MCF-7 cell proliferation: mean n = 3
Experimental: as §1

[4] = test system: MES-SA/MX2 cells; test: In vitro cytotoxicity (MTS) assay in Dox-resistant MES-SA/MX2 cells; format: cell-based
Experimental: as §1

[5] = test system: K562/ADR (human erythroleukemic cells); parameters: method as in PMID 11261883; details: resistant K562/ADR cells; cited from earlier work
From the text: Different linear CPPs such as penetratin [15], TAT [18], polyarginine, and maurocalcine have been conjugated with Dox.

[6] = test system: H9C2 cells; test: Confocal microscopy uptake in H9C2 heart cells; format: cell-based, rat; details: H9C2, 5 µM (mixture: Dox 5 µM with [WR]9 5 or 10 µM), 24 h
Experimental: (§2) MDA-MB-231, SK-OV-3, MES-SA/MX2, and H9C2 cells (7 × 10^4 cells/well) were seeded with a medium on a coverslip 24 h prior to the experiment in six well plates. After 24 h, the medium was changed with opti-MEM. The cells were treated with Dox and peptide-Dox conjugate (5 μM) in opti-MEM for 24 h. After 24 h incubation, the media were removed, and cells were washed three times with PBS in each well. Then, the cells were fixed with 3.7% formaldehyde for 10 min, followed by washing three times with PBS for 5 min (pH 7.6). DAPI (40 µL) for staining the nuclei was placed on a microscope slide, and it was covered with the coverslip with the cell-attached side facing down. The slides were left standing horizontally in a dark place with airflow to allow drying faster. The cells were photographed using Nikon Instruments A1 Confocal Laser Microscope Series (Nikon Instruments Inc, NY, USA) and NIS-Elements software (AR 4.30.02, 64 bit). The scan mode was selected as Galvano. The magnification and resolution were set at 40× and 1024, respectively.

[7] = test system: H9C2 myocardium cells; details: 24 h, MTS, n = 3
Experimental: The cells were seeded in a complete growth medium 24 h prior to the experiment. […] The incubation was continued for 3 h.

[8] = test system: MES-SA/MX2 cells; test: Confocal microscopy internalization in MES-SA/MX2 cells; format: cell-based; details: MES-SA/MX2, 5 μM, 24 h
Experimental: as §2

[9] = test system: SK-OV-3 cells; test: Confocal microscopy uptake and retention in SK-OV-3 cells; format: cell-based, human; details: SK-OV-3, 5 μM, 3 h then 24 h in media
Experimental: as §2, with “The cells were treated with Dox and peptide-Dox conjugate (5 μM) in opti-MEM for 24 h.” left out

[10] = in vitro; details: human, 25% human serum
Experimental: Human serum (250 μL) was diluted by adding sterile water (650 μL) and conjugate stock solution (100 μL) to give a sample with 25% human serum and 5 μM conjugate. The sample was kept at 37 °C in an incubator to mimic human body temperature. At regular time intervals, aliquots (100 μL) were taken and diluted with methanol (200 μL). After centrifugation (7000 RPM) of the mixture for 10 min, the supernatant was analyzed by analytical HPLC at 495 nm, and the major HPLC peaks were analyzed by mass spectrometry. The mobile phase used was acetonitrile/water with 0.1% TFA, with a gradient of 20–45% and a flow rate of 1 mL/min in 50 min. The percentage of intact conjugate and the release of the free drug were plotted against incubation time. The AUC obtained after each run was used to confirm the conjugate’s degradation, and t1/2 (the time needed to hydrolyze half of the initial conjugate in human serum) was calculated from the graph plotted as AUC versus incubation time.

[11] = test system: MDA-MB-231 cells; test: Differential nuclear and cytoplasmic extraction of Dox, HPLC; format: cell-based, human; details: 50 μM, 4 h exposure, MDA-MB-231, nuclear extract, HPLC at 490 nm
Experimental: In order to confirm nuclear delivery of peptide-conjugated Dox, in addition to confocal microscopy, we performed a differential nuclear and cytoplasmic extraction. […] The cells were then pelleted at 2000 rpm for 5 min. After removing the supernatant, the cells were resuspended in Dounce buffer containing protease inhibitors. The cell suspension to be used was incubated on ice for 15 min before being spiked with cold 10% NP-40 and vortexed for 10 s. The suspension was centrifuged at 10,000 rpm for 10 min at 4 °C to pellet the nuclei. The supernatant was isolated for cytoplasmic extraction. The nuclear pellet was washed in cold PBS twice and centrifuged to remove the supernatant. The isolated nuclei were then lysed using RIPA buffer containing protease inhibitors. The nuclear and cytoplasmic extractions were analyzed by analytical HPLC to differentially quantify free Dox (or Dox released from the conjugates) and peptide-conjugate Dox using an Agilent Zorbax SB-C18 (4.6 × 150 mm) column. The column was equilibrated with 0.1% TFA-water (solvent A). The elution was performed at a flow rate of 1 mL/min using a gradient of acetonitrile from 0 to 35% in 50 min, with the absorbance measured at 490 nm.

[12] = test system: MDA-MB-231 cells; test: FACS cellular uptake with endocytosis inhibitors in MDA-MB-231 cells; format: cell-based, human; details: MDA-MB-231, conjugate 5 µM, 3 h, flow cytometry, n = 3
Experimental: A flow cytometry study was conducted in the presence of endocytosis inhibitors such as nystatin, chlorpromazine, chloroquine, and methyl β-cyclodextrin to determine whether the cellular uptake for the peptide-Dox was endocytosis-dependent. MDA-MB-231 (5 × 10^5 cells/well) were seeded in the medium 24 h prior to the experiment in six well plates, and after 24 h the medium was changed with opti-MEM. […] The cells were then incubated with [(WR)8WKβA]-Dox conjugate (5 µM) in the presence of inhibitors for 3 h. After 3 h incubation, the media containing the compounds were removed. Next, the cells were digested with 0.05% trypsin/EDTA (0.53 mM) for 5 min to remove any artificial surface binding, centrifuged at 2500 RPM for 5 min with Fisher Scientific accuSpin Micro 17, and then collected as the precipitant. Then the cells were washed two times with PBS, resuspended in flow cytometry buffer, and transferred to the flow cytometry tubes through the 35 µm Strainer Mesh cap. Finally, the cells were analyzed by flow cytometry (FACSCalibur: Becton Dickinson, San Jose, CA, USA) using the Propidium Iodide channel and CellQuest software. The data presented were based on the mean fluorescence intensity for 10,000 cells collected. All assays were performed in triplicate.

[13] = test system: MES-SA/MX2 cells; test: FACS cellular uptake with endocytosis inhibitors in MES-SA/MX2 cells; format: cell-based; details: MES-SA/MX2, conjugate 5 µM, 3 h, flow cytometry, n = 3
[14] = test system: CCRF-CEM cells; details: conjugate 5 μM for 4 h at 37 °C, then drug-free medium, HPLC AUC
Experimental: Intracellular hydrolysis of [(WR)8WKβA]-Dox and accumulation of free Dox and the peptide–Dox conjugate were determined in CCRF-CEM cells by HPLC analysis. Cells were grown with serum-free RPMI medium in 75 cm^2 culture flasks to ∼70–80% confluence (1.37 × 10^7 cells/mL). The medium was first replaced with fresh RPMI medium having [(WR)8WKβA]-Dox conjugate (5 μM). Then the cells were incubated for 4 h at 37 °C. After 4 h, the medium containing the conjugate was aspirated, and cells were washed three times with PBS before adding a fresh serum-free medium. The cells were first partitioned/transferred to culture plates (six wells) contained 1.37 × 10^7 cells per well in 5 mL of medium, then incubated for the indicated time. After incubation, the cells were collected using centrifugation. After centrifugation, the medium was removed by decantation. The cell pellets were washed with ice-cold PBS to remove any remaining medium. The cell pellets were then completely extracted with an equal volume of methanol, chloroform, and isopropanol mixture (4:3:1 v/v/v) and finally filtered through 0.2 μm filters. The relative amount of Dox and [(WR)8WKβA]-Dox concentrations in cell lysates were quantified by analytical HPLC using the water/acetonitrile solvent.

[15] = molecular transporter of fluorescence-labeled phosphopeptide; cited from earlier work
From the text: Recently, we have reported amphiphilic cyclic CPPs composed of increasing numbers of W and R residues [WR]6–9, and compared their efficiency with the previously published cyclic [WR]5 in improving the cellular uptake of cell-impermeable compounds and their molecular transporter efficiency.

[16] = chlorpromazine 30 μM, methyl-β-cyclodextrin 2.5 mM

COc1cccc2c1C(=O)c1c(O)c3c(c(O)c1C2=O)C[C@@](O)(C(=O)CO)C[C@@H]3O[C@H]1C[C@H](N)[C@H](O)[C@H](C)O1 [Dox, Doxorubicin]
reduction of SK-OV-3 cell viability [1]: 35% | MDA-MB-231 cell viability ([2]; 24 h): 79% | inhibition of MDA-MB-231 cell viability / proliferation ([2]; 5 μM, 72 h): 63% | MDA-MB-231 cell viability ([2]; 72 h): 37% | reduction of MCF-7 cell proliferation ([3]; 5 µM, 24 h): 21% | reduction of MCF-7 cell proliferation ([3]; 5 µM, 72 h): 57% | inhibition of MES-SA/MX2 cell viability / proliferation ([4]; 5 μM, 72 h): 15% | efficiency of free Dox against MES-SA/MX2 ([4]; 1, 5, 10 or 20 µM): did not show significant efficiency | IC50 [5]: 65 ± 7 µM | uptake in heart cells by confocal microscopy [6]: high uptake

COc1cccc2c1C(=O)c1c(O)c3c(c(O)c1C2=O)C[C@@](O)(C(=O)COC(=O)CCCC(=O)NCCC(=O)NCCCC[C@@H]1NC(=O)[C@H](Cc2c[nH]c4ccccc24)NC(=O)[C@H](CCCNC(=N)N)NC(=O)[C@H](Cc2c[nH]c4ccccc24)NC(=O)[C@H](CCCNC(=N)N)NC(=O)[C@H](Cc2c[nH]c4ccccc24)NC(=O)[C@H](CCCNC(=N)N)NC(=O)[C@H](Cc2c[nH]c4ccccc24)NC(=O)[C@H](CCCNC(=N)N)NC(=O)[C@H](Cc2c[nH]c4ccccc24)NC(=O)[C@H](CCCNC(=N)N)NC(=O)[C@H](Cc2c[nH]c4ccccc24)NC(=O)[C@H](CCCNC(=N)N)NC(=O)[C@H](Cc2c[nH]c4ccccc24)NC(=O)[C@H](CCCNC(=N)N)NC(=O)[C@H](Cc2c[nH]c4ccccc24)NC(=O)[C@H](CCCNC(=N)N)NC(=O)[C@H](Cc2c[nH]c4ccccc24)NC1=O)C[C@@H]3O[C@H]1C[C@H](N)[C@H](O)[C@H](C)O1 [[(WR)8WKβA]-Dox conjugate] (HELM PEPTIDE1{K.W.R.W.R.W.R.W.R.W.R.W.R.W.R.W.R.W}|PEPTIDE2{[COc1cccc2c1C(=O)c1c(O)c3c(c(O)c1C2=O)C[C@@](O)(C(=O)COC(=O)CCCC(=O)[*:2])C[C@@H]3O[C@H]1C[C@H](N)[C@H](O)[C@H](C)O1].[bAla]}$PEPTIDE1,PEPTIDE2,1:R3-2:R2|PEPTIDE1,PEPTIDE1,1:R1-18:R2$$$V2.0)
cytotoxicity in rat H9C2 myocardium cells ([7]; 10 µM): comparable to Dox | cytotoxicity in rat H9C2 myocardium cells ([7]; 1 and 5 µM): no significant cytotoxicity | internalization into resistant cells overexpressing P-gp [8]: internalized | cellular uptake, retention and localization of Dox [9]: increased the cellular uptake and retention of Dox | metabolised at 1 h, 5 µM [10]: 7% | metabolised at 6 h, 5 µM [10]: ~50% | metabolised at 12 h, 5 µM [10]: > 80% | remaining at 24 h, 5 µM [10]: 6% | total concentration of Dox (conjugated and released) in the nucleus [11]: higher than free Dox | reduction of MCF-7 cell proliferation ([3]; 1 µM, 24 h): 28% | reduction of MCF-7 cell proliferation ([3]; 1 µM, 72 h): 70% | reduction of MCF-7 cell proliferation ([3]; 5 µM, 24 h): 55% | reduction of MCF-7 cell proliferation ([3]; 10 µM, 24 h): 56% | reduction of MCF-7 cell proliferation ([3]; 10 µM, 72 h): 77% | uptake in heart cells by confocal microscopy [6]: did not show any significant uptake | cellular uptake in presence of chlorpromazine and methyl-β-cyclodextrin [12, 16]: slight uptake reduction | cellular uptake in presence of nystatin and chloroquine ([12]; nystatin 50 μg/mL, chloroquine 100 μM, 30 min preincubation): not reduced significantly | uptake reduction in presence of chlorpromazine and methyl-β-cyclodextrin [13, 16]: statistically significant | cellular uptake in presence of nystatin and chloroquine ([13]; nystatin 50 μg/mL, chloroquine 100 μM): not reduced significantly | free Dox released intracellularly ([14]; within 12 h): More than 36% | free Dox released intracellularly ([14]; within 72 h): approximately 100%

N=C(N)NCCC[C@@H]1NC(=O)[C@H](Cc2c[nH]c3ccccc23)NC(=O)[C@H](CCCNC(=N)N)NC(=O)[C@H](Cc2c[nH]c3ccccc23)NC(=O)[C@H](CCCNC(=N)N)NC(=O)[C@H](Cc2c[nH]c3ccccc23)NC(=O)[C@H](CCCNC(=N)N)NC(=O)[C@H](Cc2c[nH]c3ccccc23)NC(=O)[C@H](CCCNC(=N)N)NC(=O)[C@H](Cc2c[nH]c3ccccc23)NC(=O)[C@H](CCCNC(=N)N)NC(=O)[C@H](Cc2c[nH]c3ccccc23)NC(=O)[C@H](CCCNC(=N)N)NC(=O)[C@H](Cc2c[nH]c3ccccc23)NC(=O)[C@H](CCCNC(=N)N)NC(=O)[C@H](Cc2c[nH]c3ccccc23)NC(=O)[C@H](CCCNC(=N)N)NC(=O)[C@H](Cc2c[nH]c3ccccc23)NC1=O [[WR]9] (HELM PEPTIDE1{R.W.R.W.R.W.R.W.R.W.R.W.R.W.R.W.R.W}$PEPTIDE1,PEPTIDE1,1:R1-18:R2$$$V2.0)
effect of [WR]9 alone on MCF-7 cell survival ([3]; different concentrations (1, 5, 10 μM)): no significant effect on cell survival | antiproliferative effect of [WR]9 alone on MES-SA/MX2 ([4]; 24 and 72 h): no significant antiproliferative effect | enhancement of cellular uptake of F′-GpYEEI [15]: 20 fold
